The results in this text go back to patent publication US10213392B2, “Pharmaceutical composition for use in medical and veterinary ophthalmology” (Mitotech SA, priority 2009, dated 2019).

Molecules are shown by their SMILES. Entries after “also recorded” stand apart in the source; their conditions may differ.

The nature of data set [1]: Stability of SkQ1 in solutions containing benzalkonium chloride (storage 24 hours at room temperature, HPLC-MS/MS). The conditions noted are these: for Determined concentration of SkQ1 in 24 hours: 10 mM sodium phosphate pH 6.5, 0.9% NaCl. It is filed as physicochemical. The procedure: (§1) Materials and Method for Quantitative Detection of SkQ1
(§2) Analysis is carried out by high-performance liquid chromatography with MS/MS detection.
(§3) 100 μL of the internal standard solution is placed into a 10 ml flask, 5 ml of the water-ethanol solution is added and stirred for 11 min. 500 μL of sample solution is added to 0.1 ml of a 0.5 M solution of 3-chloroperbenzoic acid in ethanol, and the volume is adjusted to the mark with ethanol-water solution and stirred for 30 min. 1 ml of the resulting solution is transferred into a chromatographic vial.
(§4) The chromatographic conditions are as follows: The device used is a Waters ACQUITY UPLC®. The column used is steel, 2.1×50 mm, filled with sorbent Acquity BEH C18, 1.7 μm (Waters, P/N 186002350) or equivalent. The column temperature is 35° C. The mobile phase is eluent A: 20 mM solution of formic acid in 5% aqueous acetonitrile and eluent B: 20 mM solution of formic acid in aqueous acetonitrile. The flow rate is 0.5 ml/min. The volume of injection is the total loop (about 11 μL). The elution mode is a gradient of eluents A and B according to Table 4.
(§5) The time of the analysis is about 5 min. The detector is a Waters TQD (tri-quadrupole) for MS/MS.
(§6) The conditions of detection is as follows: The electrospraying mode is positive (ES+). The working mode is monitoring of reactions of settled ions (MRM). The temperature of the ion source is 120° C. The vaporization temperature is 450° C. The cone voltage is 55 V. The capillary voltage is 3.0 kV. The collision gas (CID) is argon. The collision gas flow rate is 0.18 ml/min. The collision gas pressure (CID) is 4.5×10^−3 mbar. The transitions of scans and collision energy are according to Table 5.
(§7) The SkQ1 content in the product (μg/ml) was calculated using the equation:
(§8) [formula] • “S/Ssmpl” is the ratio of peak areas and SkQ1 and SkQ1-d15 in chromatograms of the sample solution; • “S/Sstd” is the ratio of SkQ1 and SkQ1-d15 peak areas in chromatograms of the SS solution; • “a” is the amount of SkQ1 taken to prepare the original standard solution, in mgs; • “W” is the water content and organic solvents in SkQ1 substance taken to prepare the original standard solution, in percent; and • “P” is the SkQ1 content in SkQ1 substance taken to prepare the original standard solution, in percent.

The nature of data set [2]: Stability of SkQ1 in solutions with different prolongators (storage 50 days at room temperature, HPLC-MS/MS). The conditions noted are these: for Relative content of SkQ1 after incubation for 50 days: 10 mM sodium phosphate pH 6.5, 0.9% NaCl, 0.01% benzalkonium chloride, room temperature. It is filed as physicochemical. The procedure: as §1, §2, §3, §4, §5, §6, §7, §8

For the compound `Br.CC1=C(C)C(=O)C(CCCCCCCCCC[P+](c2ccccc2)(c2ccccc2)c2ccccc2)=CC1=O` [SkQ1], the “Decrease of the concentration of SkQ1” value in data set [1] (absence of benzalkonium chloride, 24 hours) is listed as 58%. Besides, in data set [1] (addition of 0.01% benzalkonium chloride, SkQ1 up to 250 nM, 24 hours), the “Decrease of SkQ1 concentration during storage (in words)” value is “completely prevented; also recorded: prevents a decrease in the concentration”. Moreover, the “Determined concentration of SkQ1 in 24 hours” value was determined as 104 nM in data set [1] (benzalkonium chloride 0 (control) %, added SkQ1 250 nM); 56 nM in data set [1] (benzalkonium chloride 0.01%, added SkQ1 50 nM); 97 nM in data set [1] (benzalkonium chloride 0.01%, added SkQ1 100 nM); 180 nM in data set [1] (benzalkonium chloride 0.01%, added SkQ1 180 nM); 254 nM in data set [1] (benzalkonium chloride 0.01%, added SkQ1 250 nM). Moreover, the “Relative content of SkQ1” value in data set [1] (benzalkonium chloride 0 (control) %, added SkQ1 250 nM, 24 hours) was 42%; in data set [1] (benzalkonium chloride 0.01%, added SkQ1 50 nM, 24 hours), 112%; in data set [1] (benzalkonium chloride 0.01%, added SkQ1 100 nM, 24 hours) it was 97%; in data set [1] (benzalkonium chloride 0.01%, added SkQ1 180 nM, 24 hours) it was 100%; in data set [1] (benzalkonium chloride 0.01%, added SkQ1 250 nM, 24 hours), 102%. For the same compound, the “Relative content of SkQ1 after incubation for 50 days” value was 93% in data set [2] (0.2% HPMC), 79% in data set [2] (0.2% MC) and 83% in data set [2] (control (no prolongator)). In data set [2] (0.2% HPMC, 50 days at room temperature), the “Effect of prolongator on SkQ1 concentration during storage (in words)” value is on record as “stabilizes the concentration”.
